Tests used:
[1] = system: metastatic or advanced non-small cell lung cancer (NSCLC); assay: Phase 2 randomized double-blind study: PFS and OS with veliparib + carboplatin/paclitaxel versus placebo + carboplatin/paclitaxel; type: in vivo, human
Procedure: (§1) A Phase 2, randomized, double-blind, multi-center study was conducted evaluating the efficacy, safety, and tolerability of veliparib in combination with carboplatin and paclitaxel versus placebo in combination with carboplatin and paclitaxel in subjects with documented metastatic or advanced non-small cell lung cancer (NSCLC) as first-line chemotherapy. Patients were randomized in a 2:1 ratio to either veliparib+carboplatin/paclitaxel or placebo+carboplatin/paclitaxel. Patient randomization was stratified by histology (squamous cell versus non-squamous cell), and smoking history (current smoker versus never smoked versus past smoker). Screening procedures and baseline radiographic tumor assessments were performed within 21 days prior to the first day veliparib/placebo was administered. Radiographic tumor assessments were conducted every 6 weeks and were sent to a central imaging center for review. Dosing of oral veliparib/placebo (120 mg) began 2 days prior to the start of the carboplatin/paclitaxel and was given twice a day (BID) for 7 days. […] All subjects were to remain on study until reaching a protocol defined event of disease progression. Patients who completed 6 cycles of treatment remained on study/off study drugs until reaching an event of disease progression. Chemotherapy or biological therapy (maintenance therapy) was not allowed until disease progression. Patients who experienced toxicities due to carboplatin/paclitaxel or veliparib may have been given a delay in the dosing schedule or a dose modification.

clinical = assay: clinical
Procedure: as §1
Pharmacokinetic parameters were evaluated for patients with chemical evidence of recent smoking (cotinine high^b, >10 ng/mL) compared with those without evidence of recent smoking (cotinine low, ≦10 ng/mL).

[2] = patients without chemical evidence of smoking

| Tmax, Mean ± SD (% CV) (clinical; human, in vivo, po) | Tmax (clinical; human, in vivo, po, Tmax, Mean ± SD (% CV)) | SMILES | HR for OS ([1]; light smokers (<39 pack-years)) | HR for PFS ([1]; light smokers (<39 pack-years)) | HR for OS [1, 2] | HR for PFS [1, 2] | differences in levels between cotinine high and cotinine low patients (clinical; cotinine high >10 ng/mL vs cotinine low ≦10 ng/mL) |
| --- | --- | --- | --- | --- | --- | --- | --- |
| 1.05 ± 0.82 (78.3) hr | 1.34 h | C[C@]1(c2nc3c(C(N)=O)cccc3[nH]2)CCCN1 [Veliparib, 2-[(2R)-2-methylpyrrolidin-2-yl]-1H-benzimidazole-4-carboxamide] | 0.808 | 0.971 | 0.921 | 0.966 | – |
| – | – | N.N.O=C([O-])C1(C(=O)[O-])CCC1.[Pt+2] [carboplatin] | – | – | – | – | no clear differences |

— patent US9623009B2, “Veliparib in combination with carboplatin and paclitaxel for the treatment of non-small cell lung cancer in smokers” (AbbVie Inc., priority 2014, dated 2017)
